Assay results from US20220030868A1, “FUNGICIDAL HALOMETHYL KETONES AND HYDRATES” (FMC CORPORATION, priority 2018, published 2022).

Key:
Phakopsora pachyrhizi = assay: Test A: test suspension sprayed on soybean seedlings one day before inoculation with Phakopsora pachyrhizi spores (Asian soybean rust), visual disease rating; format: in vivo; conditions: 100 = 100% disease control, 0 = no control; for pest or weed control at 10 ppm / pest or weed control at 50 ppm: Phakopsora pachyrhizi
Summary of the method: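 Compound dissolved in acetone (3% of final volume), then suspended at the stated ppm in 50/50 acetone/water with 250 ppm PEG400 surfactant; sprayed to run-off on soybean seedlings, inoculated with P. pachyrhizi spores next day. Held saturated at 22° C for 24 h, then 8 days at 22° C; visual rating as % disease control versus controls.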

[1] = tested on: Puccinia recondita f. sp. tritici; assay: Test B: test suspension sprayed on wheat seedlings one day before inoculation with Puccinia recondita f. sp. tritici spores (wheat leaf rust), disease rating; format: in vivo; conditions: 100 = 100% disease control, 0 = no control
Summary of the method: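 Wheat seedlings were sprayed to run-off with compound suspended in 50/50 acetone/water containing 250 ppm PEG400, then inoculated with P. recondita f. sp. tritici spores the next day. Plants were held 24 h in saturated air at 20 °C, then 6 days in a growth chamber at 20 °C. Disease control was rated 0–100% relative to controls, with some entries run at 50 or 10 ppm.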

SMILES | Test A rating (disease control) (Phakopsora pachyrhizi; 10 ppm test suspension) | Test B rating (disease control) ([1]; 10 ppm test suspension) | also measured
O=S(=O)(NCc1ccc(OCC2(C(F)(F)F)OCCO2)cc1)C(F)(F)F [compound 207] | 0% | 0% | –
N#Cc1cnn(Cc2ccc(OCC3(C(F)(F)F)OCCO3)cc2)c1 [compound 209] | 89% | 0% | –
CCO/C(=C\Oc1ccc(CNC(=O)C(C)C)cc1)C(F)(F)F [compound 210] | 0% | 0% | –
O=C(CC(F)(F)F)NCc1ccc(OCC2(C(F)(F)F)OCCO2)cc1 [compound 212] | 44% | 0% | –
COC(C)C(=O)NCc1ccc(OCC2(C(F)(F)F)OCCO2)cc1 (stereo not shown) [compound 214] | 0% | 0% | –
CCO/C(=C\Oc1ccc(Cn2cc(C(=O)OCCOC)cn2)cc1)C(F)(F)F [compound 222] | 100% | 0% | –
CCO/C(=C\Oc1ccc(CN2CCCC2=O)cc1)C(F)(F)F [compound 224] | 0% | 0% | –
CCO/C(=C\Oc1ccc(CN2CCC(C)(C)C2=O)cc1)C(F)(F)F [compound 225] | 0% | 0% | –
CCO/C(=C\Oc1ccc(Cn2c(=O)oc3ccccc32)cc1)C(F)(F)F [compound 226] | 0% | 0% | –
C=C(C)COC(=O)c1cnn(Cc2ccc(OCC3(C(F)(F)F)OCCO3)cc2)c1 [compound 228] | 100% | 0% | –
CCO/C(=C\Oc1ccc(C(=O)OC)cc1)C(F)(F)F [compound 230] | 0% | 0% | –
CCOC(=O)c1ccn(Cc2ccc(OCC3(C(F)(F)F)OCCO3)cc2)n1 [compound 232] | 98% | 0% | –
CON(Cc1ccc(OCC2(C(F)(F)F)OCCO2)cc1)C(=O)C(C)C [compound 235] | 97% | 0% | –
CON(Cc1ccc(OCC2(C(F)(F)F)OCCO2)cc1)C(=O)C1CC1 [compound 236] | 75% | 0% | –
CCCC(=O)N(Cc1ccc(OCC2(C(F)(F)F)OCCO2)cc1)OC [compound 237] | 97% | 0% | –
CON(Cc1ccc(OCC2(C(F)(F)F)OCCO2)cc1)C(=O)OC(C)(C)C [compound 238] | 73% | 0% | –
N#CCc1ccc(OCC2(C(F)(F)F)OCCO2)cc1 [compound 239] | 0% | 0% | –
CCOCc1cnn(Cc2ccc(OCC3(C(F)(F)F)OCCO3)cc2)c1 [compound 240] | 99% | 0% | –
CCOC(=O)c1ccnn1Cc1ccc(O/C=C(\OCC)C(F)(F)F)cc1 [compound 241] | 0% | 0% | –

SMILES | Test A rating (disease control) (Phakopsora pachyrhizi; 10 ppm test suspension) | Test B rating (disease control) ([1]; 10 ppm test suspension) | also measured
C=C(C)COC(=O)c1cnn(Cc2ccc(O/C=C(\OCC)C(F)(F)F)cc2)c1 [compound 242] | 100% | 0% | –
CCO/C(=C\Oc1ccc(Cn2cc(C(=O)OCC(=O)c3ccccc3)cn2)cc1)C(F)(F)F [compound 244] | 100% | 0% | –
C=CCOC(=O)c1cnn(Cc2ccc(O/C=C(\OCC)C(F)(F)F)cc2)c1 [compound 246] | 100% | 0% | –
O=C(OCC1CCC1)c1cnn(Cc2ccc(OCC3(C(F)(F)F)OCCO3)cc2)c1 [compound 249] | 100% | 0% | –
CCO/C(=C\Oc1ccc(Cn2nccc2C(=O)OC)cc1)C(F)(F)F [compound 250] | 0% | 0% | –
CCO/C(=C\Oc1ccc(Cn2ccc(C(=O)OC)n2)cc1)C(F)(F)F [compound 251] | 100% | 9% | –
CCO/C(=C\Oc1ccc(Cn2nccc2C(=O)OC(C)(C)C)cc1)C(F)(F)F [compound 252] | 0% | 0% | –
CCO/C(=C\Oc1ccc(Cn2ccc(C(=O)OC(C)(C)C)n2)cc1)C(F)(F)F [compound 253] | 0% | 0% | –
CCO/C(=C\Oc1ccc(Cc2ncc(C(=O)NCC3CC3)s2)cc1)C(F)(F)F [compound 254] | 73% | 0% | –
CCO/C(=C\Oc1ccc(Cc2ncc(C(=O)NCC(F)F)o2)cc1)C(F)(F)F [compound 255] | 89% | 0% | –
CCO/C(=C\Oc1ccc(Cc2ncc(C(=O)NCC3CC3)o2)cc1)C(F)(F)F [compound 258] | 96% | 0% | –
CCOC(=O)c1cnn(Cc2ccc(OCC(O)(O)C(F)(F)F)c(F)c2)c1 [compound 264] | – | – | pest or weed control at 10 ppm (Phakopsora pachyrhizi; 10 ppm test suspension): 99%; pest or weed control at 10 ppm ([1]; 10 ppm test suspension): 80%
CCOC(=O)c1cnn(C(C)c2ccc(O/C=C(\OCC)C(F)(F)F)cc2)c1 (stereo not shown) [compound 267] | 94% | 0% | –
CCOC(=O)C1CCN(Cc2ccc(O/C=C(\OCC)C(F)(F)F)cc2)CC1 [compound 268] | 99% | 0% | –
CCOC(=O)C1CCCN(Cc2ccc(O/C=C(\OCC)C(F)(F)F)cc2)C1 (stereo not shown) [compound 269] | 100% | 0% | –
O=C(OCC1CCCCC1)c1cnn(Cc2ccc(OCC3(C(F)(F)F)OCCO3)cc2)c1 [compound 272] | 100% | 0% | –
CCOC(=O)c1cnn(Cc2ccc(OCC3(C(F)(F)F)OCCO3)s2)c1 [compound 273] | – | – | pest or weed control at 50 ppm (Phakopsora pachyrhizi; 50 ppm test suspension): 100%; pest or weed control at 50 ppm ([1]; 50 ppm test suspension): 0%
CCOC(=O)C1=NOC(c2ccc(O/C=C(\OCC)C(F)(F)F)cc2)C1 (stereo not shown) [compound 278] | – | – | Test A rating (disease control) (Phakopsora pachyrhizi; 50 ppm test suspension): 94%; Test B rating (disease control) ([1]; 50 ppm test suspension): 0%
CCO/C(=C\Oc1ccc([N+](=O)[O-])cc1)C(F)(F)F [compound 279] | – | – | Test A rating (disease control) (Phakopsora pachyrhizi; 50 ppm test suspension): 0%; Test B rating (disease control) ([1]; 50 ppm test suspension): 0%

SMILES | Test A rating (disease control) (Phakopsora pachyrhizi; 10 ppm test suspension) | Test B rating (disease control) ([1]; 10 ppm test suspension) | also measured
CSc1nccc(Cc2ccc(OCC3(C(F)(F)F)OCCO3)cc2)n1 [compound 281] | – | – | Test A rating (disease control) (Phakopsora pachyrhizi; 50 ppm test suspension): 95%; Test B rating (disease control) ([1]; 50 ppm test suspension): 98%
CS(=O)(=O)c1nccc(Cc2ccc(OCC3(C(F)(F)F)OCCO3)cc2)n1 [compound 282] | – | – | Test A rating (disease control) (Phakopsora pachyrhizi; 50 ppm test suspension): 0%; Test B rating (disease control) ([1]; 50 ppm test suspension): 0%
O=C(OCC1CCCC1)c1cnn(Cc2ccc(OCC3(C(F)(F)F)OCCO3)cc2)c1 [compound 284] | 100% | 0% | –
CC=CCOC(=O)c1cnn(Cc2ccc(OCC3(C(F)(F)F)OCCO3)cc2)c1 [compound 285] | 100% | 0% | –
C=CCOC(=O)c1ccn(Cc2ccc(O/C=C(\OCC)C(F)(F)F)cc2)n1 [compound 291] | 100% | 0% | –
CCCOC(=O)c1ccn(Cc2ccc(O/C=C(\OCC)C(F)(F)F)cc2)n1 [compound 292] | 100% | 0% | –
CC#CCOC(=O)c1ccn(Cc2ccc(O/C=C(\OCC)C(F)(F)F)cc2)n1 [compound 293] | 100% | 0% | –
CCOC(=O)c1cnn(CCCc2ccc(O/C=C(\OCC)C(F)(F)F)cc2)c1 [compound 294] | 100% | 0% | –
CCOC(=O)c1cnn(CCCc2ccc(OCC3(C(F)(F)F)OCCO3)cc2)c1 [compound 296] | 0% | 0% | –
CCOC(=O)c1cnn(Cc2ccc(O/C=C(\OCC(F)(F)F)C(F)(F)F)cc2)c1 [compound 298] | 0% | 0% | –
CCO/C(=C\Oc1ccc(Cn2ccc(C(=O)O)n2)cc1)C(F)(F)F [compound 299] | 100% | 0% | –
CC#CCOC(=O)c1cnn(Cc2cccc(O/C=C(\OCC)C(F)(F)F)c2)c1 [compound 300] | 100% | 0% | –
CCOC(=O)c1cnn(Cc2cccc(O/C=C(\OCC)C(F)(F)F)c2F)c1 [compound 301] | – | – | pest or weed control at 50 ppm (Phakopsora pachyrhizi; 50 ppm test suspension): 100%; pest or weed control at 50 ppm ([1]; 50 ppm test suspension): 0%
CCOC(=O)c1cnn(Cc2cc(O/C=C(\OCC)C(F)(F)F)ccc2F)c1 [compound 302] | – | – | pest or weed control at 50 ppm (Phakopsora pachyrhizi; 50 ppm test suspension): 99%; pest or weed control at 50 ppm ([1]; 50 ppm test suspension): 0%
CCOC(=O)c1cnn(Cc2cccc(O/C=C(\OCC)C(F)(F)F)c2C)c1 [compound 303] | – | – | pest or weed control at 50 ppm (Phakopsora pachyrhizi; 50 ppm test suspension): 0%; pest or weed control at 50 ppm ([1]; 50 ppm test suspension): 0%
CCOC(=O)c1cnn(C(C)c2cccc(O/C=C(\OCC)C(F)(F)F)c2)c1 (stereo not shown) [compound 304] | – | – | Test A rating (disease control) (Phakopsora pachyrhizi; 50 ppm test suspension): 96%; Test B rating (disease control) ([1]; 50 ppm test suspension): 0%
O=Cc1cccc(OCC(O)(O)C(F)(F)F)c1 [compound 305] | – | – | pest or weed control at 10 ppm (Phakopsora pachyrhizi; 10 ppm test suspension): 70%; pest or weed control at 10 ppm ([1]; 10 ppm test suspension): 0%
CCO/C(=C\Oc1ccc(Cc2ccnc(S(C)(=O)=O)n2)cc1)C(F)(F)F [compound 307] | – | – | Test A rating (disease control) (Phakopsora pachyrhizi; 50 ppm test suspension): 0%; Test B rating (disease control) ([1]; 50 ppm test suspension): 0%
